Experimental data from the NIST ThermoML archive (doi:10.1021/je101302p).
Numbers after ± are expanded uncertainties.

Details: Liquid; for mass density: 298.15 K, 101.33 kPa, Vibrating tube method

Row | mass density [kg/m3] | vapor or sublimation pressure (395.1 K) [kPa] | vapor or sublimation pressure (414.53 K) [kPa] | vapor or sublimation pressure (370.29 K) [kPa] | Compound
1 | 881.619 ± 0.3 | 101.3 ± 1.7 |  |  | CCCOC(=O)CC [propyl propanoate]
2 | 993.722 ± 0.3 |  | 101.3 ± 3.4 |  | CCC(=O)O [propanoic acid]
3 | 804.269 ± 0.19 |  |  | 101.3 ± 3.4 | CCCO [propan-1-ol]
